From US20040132108A1, “Screening methods and agents” (priority 2001, published 2004)
Entries after “also recorded” stand apart in the source; their conditions may differ.

Experiments:
[1] = target: T1, full-length p300 protein (Homo sapiens, UniProt Q09472); test: ELISA binding of full-length p300 to biotinylated peptides; settings: biotinylated peptide titrated onto streptavidin-coated wells
T1 construct: Full-length p300 and p300(1135-2414) baculovirus were a gift from N. B. La Thangue; made in house; host or cells: Sf9 insect cells (baculovirus)
Method: Microtitre wells were coated with 100 ng of streptavidin and incubated overnight at room temperature. To prevent non-specific binding, 100 μl of 3% BSA, PBS, 01% Tween 20 was added and incubated for 1 hour at 4° C. Wells were washed 3 times with 180 μl PBSM 0.1% Tween 20 and biotinylated peptides, resuspended in 50 μl/well of 3% BSA, PBS, 0.1% Tween 20/NaF/Beta-phosphoglycerate, were incubated for 1 hour at 4° C. Non-specific binding sites were blocked by adding 180 μl 5% milk powder, PBS, 0.1 Tween 20/NaF/Beta-phosphoglycerate for 30 minutes at 4° C. before adding p300 resuspended in 50 ml/well of Sf9LB. Where plant extract was added to p300, the reaction was incubated for 30 minutes before adding to wells. The reaction was the incubated for 1 hour at 4° C. and then the wells were rigorously washed 3 times with 180 μl PBS, 0.1%, Tween 20 before incubating for 1 hour with specific antibodies in 50 μl/well 5% milk powder, PBS, 0.1% Tween 20/NaF/Beta-phosphoglycerate. Wells were given another 3 washes with PBS, 0.1%, Tween 20 to remove unbound antibody and specific binding was detected with secondary antibody (anti-mouse or anti-rabbit) conjugated to horse radish peroxidase (HRP). The binding was detected by ECL and quantified using a luminometer (Fluoroskan Ascent FL).
Plates were rigorously washed 3 times with PBST20 (0.1% v/v) to reduce the non-specific binding. Primary antibodies anti-p300(N-15) (Santa Cruz Biotechnology Inc.), anti-FLAG (Sigma) and anti-Mdm2 (2A10) (Movarian Biotechnologies) were used and the appropriate secondary antibody cross-linked to HRP. The signal detected by Enhanced Chemoluminescence was developed using Fluoroskan Ascent FL.

[2] = test system: HCT116 (p53^+/+) cells; test: Cell cycle profile by FACS in HCT116 p53+/+ cells; format: cell-based; settings: 5 μg EGFP construct, CD20-selected cells, propidium iodide
From the text: To address this issue, we co-transfected EGFP-NS, EGFP-BOXI, EGFP-S20D or EGFP-PRO with pCMV-CD20 cell surface marker into HCT116 (p53^+/+) cells, selected the transfected population using a FITC-conjugated CD20 antibody, sorted them by FACS and the resultant cell cycle profile of the transfected population determined by propidium iodide staining of DNA. The amount of EGFP-peptide construct and levels of EGFP protein produced were identical to those used in transcription assays (FIG. 10 and data not shown), so a direct correlation can be made between the reduction in transcription by the EGFP-S20D or EGFP-PRO peptides and changes in cell-cycle parameters. […] The MDM2-binding peptides have been well-documented to have a positive affect on […] dependent transcription (Bottger, Bottger et al. 1996).
(§1) To select the transfected cell population, cells were co-transfected with 3 μg pCMV-CD20 and incubated for 24 hours before washing and detaching cells in PBS/5 mM EDTA. Cells were then harvested and resuspended in serum free media with FITC-conjugated anti-CD20 (Becton Dickinson) and incubating for 30 minutes on ice. Cells were then washed twice with PBS/1% FBS and resuspended in 100 μl PBS before adding 900 μl ice-cold ethanol dropwise. After incubation at 4° C. for >2 hours cells were stained with Pi (40 μg/ml) and treated with RNAse (100 μg/ml). Transfected cells were gated using the FL1 channel and PI staining detected with the FL2 channel and the resultant cell cycle profiles of 2000 cells were analysed using a FACScan and CellQuest software (Becton Dickinson).

[3] = test system: p53-dependent transactivation of the p21 promoter; test: p21-Luciferase reporter of endogenous p53-dependent transcription in A375 cells; format: cell-based; settings: for basal p53-dependent transactivation of the p21 promoter: cycling A375 cells, transient transfection, p21-Luc / β-Gal
Method: Proliferating A375 cells were transiently co-transfected with EGFP-NS, EGFP-BOX-I, EGFP-S15D, EGFP-T18D or EGFP-S20D and control or p21-Luciferase reporter constructs. Changes in the basal p53-dependent transcription activity was quantitated 24 hours post-transfection.
A375 and HCT116 cells both containing a wild-type p53 pathway were maintained in DMEM (Gibco BRL) supplemented with 10% FBS and incubated at 37° C. with an atmosphere of 10% CO2. For transient transfections, 3×10^5 cells were plated out in 6-well dishes and transfected with LipofectAMINE (Gibco BRL). The exact quantity of DNA transfected is indicated in each experiment and where necessary, carrier DNA was incorporated to keep the same quantity of DNA consistent in each transfecton. To monitor transfection efficiency, pCMV-βGal was included in each transfection. Unless otherwise stated, cells were harvested 24 hours post-transfection and lysed in Reporter Lysis Buffer and the corresponding luciferase and β-Gal assay carried out according to the manufacturers protocol (Promega, UK).

[4] = test system: HCT116 p53^−/− cells; test: Cell cycle profile by FACS in HCT116 p53-/- cells; format: cell-based; settings: 5 μg EGFP construct, CD20-selected cells, propidium iodide
Method: With the arrest in G2/M observed in p53^+/+ cells using the PRO and S20D fusion peptides, it was determined whether the peptides would have any effect on the cell cycle profile in a p53^−/− cell line. Using the same parameters as in the p53^+/+ cell line, the effects on the cell cycle were determined (FIGS. 12B and 12D).
as §1

[5] = test system: p300 induction of p53-dependent gene expression from the bax promoter; test: p53/p300 co-transfected Saos-2 cells, bax-Luc reporter; format: cell-based; settings: Saos-2 cells co-transfected with p53 and p300, increasing EGFP construct
Method: FIG. 5: In vivo inhibition of ectopically expressed p53 activity from the bax promoter by phospho-peptide mimetic fusion proteins. (A) Stimulation of p53 activity by cotransfection with p300. Saos-2 cells were transiently co-transfected with 1 μg of pCMV-p53, 2 μg bax-Luc, 1 μg pCMVβ-Gal and increasing amounts of pCMV-βp300. The cells were harvested 30 hours post-transfection and the relative activity is expressed as a ratio of luciferase activity to β-Gal activity. (B) EGFP-S20D peptide fusion protein inhibits p300 induction of p53-dependent gene expression. Saos-2 cells were transiently co-transfected with 1 μg pCMV-p53, 2 μg bax-Luc, 5 μg pCMVβp300, 1 μg of pCMVβ-Gal and increasing amounts of EGFP-S20D or EGFP-control. Cells were harvested 30 hours post-transfection and relative activity is expressed as a ratio of luciferase activity to β-Gal activity ( ? control, 0 μg, 1 μg, 2 μg and 5 μg).
(§2) A final model used to examine whether the phospho-peptide mimetic peptides inhibit p53 activity involved the use of the p53-null cell line Saos-2 co-transfected with p300, p53, and the indicated reporter or expression vectors (FIG. 3). Transient co-transfection of increasing amounts of p300 with p53 into Saos-2 cells lead to maximal stimulation of p53-dependent gene expression from the p21 promoter (FIG. 3A) or the bax promoter (FIG. 5A).
A375 and Saos-2 cells were maintained in DMEM (Gibco BRL) supplemented with 10% FBS and incubated at 37° C. with an atmosphere of 10% CO2. Transient transfections and ELISAs were carried out as previously described (Dornan and Hupp 2001). Full-length p300 and His-p300 infected Sf9 cells were harvested 72 hours post-infection as described previously (Shikama, Lee et al. 1999; Dornan and Hupp 2001). Sf9 expressed wtp53 and p53ΔProAE tetramers were purified by heparin-sepharose chromatography as described previously (Hupp and Lane 1994). […] The signal detected by Enhanced Chemo-luminescence was developed using autoradiography film (Amersham).

[6] = test system: p300 induction of p53-dependent gene expression from the p21 promoter; test: p53/p300 co-transfected Saos-2 cells, p21-Luc reporter; format: cell-based; settings: for p53-p300 co-stimulated transactivation, p21 promoter: Saos-2 cells co-transfected with p53 and p300, increasing EGFP construct; for p53 protein levels (immunoblot): Saos-2 cells, 1 μg EGFP construct, relative to EGFP-NS control
Method: FIG. 3: In vivo inhibition of ectopically expressed p53 from the p21 promoter by phospho-peptide mimetic fusion proteins. (A) Stimulation of p53 activity by cotransfection with p300. Saos-2 cells were transiently co-transfected with 1 μg of pCMV-p53, 2 μg p21-Luc, 1 μg pCMVβ-Gal and increasing amounts of pCMV-βp300. The cells were harvested 30 hours post-transfection and the relative activity is expressed as a ratio of luciferase activity to β-Gal activity (Δ negative control, 0 ng, 1 μg, 2 μg and 5 μg). (B) EGFP-S20D peptide ([…] LPENN) inhibits p300 induction of p53-dependent gene expression. Saos-2 cells were transiently co-transfected with 1 μg pCMV-p53, 2 μg p21-Luc, 5 μg pCMVβp300, 1 μg of pCMVβ-Gal and increasing amounts of EGFP-constructs as indicated. The cells were processed as described in the legend of FIG. 3A (▴ control, control, 1 μg, 2 μg and 5 μg). (C) Immunoblots of p53 and EGFP-fusion proteins in transfected Saos-2 cells. Lysates from transfected Saos-2 cells [as described in FIG. 3B] were normalized for protein content by Bradford and loading for immunoblots was confirmed by Red Ponceau staining. The constructs transfected are highlighted by the legend above the Figure (increasing amounts of EGFP fused to NS, BOX-I, S15D, T18D, and S20D BOX-I domain peptides) and are described below the Figure as a “+”. The levels of p53, EGFP, and p21 proteins are in the top, middle, or bottom panel, respectively. p53-dependent activity (in RLU's) from FIG. 3B is listed underneath the immunoblots for direct comparison of p53 activity to p53 protein and EGFP protein levels.
as §2
A375 and Saos-2 cells were maintained in DMEM (Gibco BRL) supplemented with 10% FBS and incubated at 37° C. with an atmosphere of 10% CO2. Transient transfections and ELISAs were carried out as previously described (Dornan and Hupp 2001). Full-length p300 and His-p300 infected Sf9 cells were harvested 72 hours post-infection as described previously (Shikama, Lee et al. 1999; Dornan and Hupp 2001). Sf9 expressed wtp53 and p53ΔProAE tetramers were purified by heparin-sepharose chromatography as described previously (Hupp and Lane 1994). Transfected lysates were run on a 12% SDS-PAGE and transferred to nitrocellulose membrane and even protein loading confirmed by Ponceau S (Sigma) staining. Primary antibodies anti-p53 (DO-1), anti-p21 (Ab-1) (Calbiochem), anti-Bax (N-20) (Santa Cruz Biotechnology Inc.), anti-EGFP (Clontech) were used and the appropriate secondary antibody conjugated to HRP. The signal detected by Enhanced Chemo-luminescence was developed using autoradiography film (Amersham).

T1 sequence (Q09472 whole entry): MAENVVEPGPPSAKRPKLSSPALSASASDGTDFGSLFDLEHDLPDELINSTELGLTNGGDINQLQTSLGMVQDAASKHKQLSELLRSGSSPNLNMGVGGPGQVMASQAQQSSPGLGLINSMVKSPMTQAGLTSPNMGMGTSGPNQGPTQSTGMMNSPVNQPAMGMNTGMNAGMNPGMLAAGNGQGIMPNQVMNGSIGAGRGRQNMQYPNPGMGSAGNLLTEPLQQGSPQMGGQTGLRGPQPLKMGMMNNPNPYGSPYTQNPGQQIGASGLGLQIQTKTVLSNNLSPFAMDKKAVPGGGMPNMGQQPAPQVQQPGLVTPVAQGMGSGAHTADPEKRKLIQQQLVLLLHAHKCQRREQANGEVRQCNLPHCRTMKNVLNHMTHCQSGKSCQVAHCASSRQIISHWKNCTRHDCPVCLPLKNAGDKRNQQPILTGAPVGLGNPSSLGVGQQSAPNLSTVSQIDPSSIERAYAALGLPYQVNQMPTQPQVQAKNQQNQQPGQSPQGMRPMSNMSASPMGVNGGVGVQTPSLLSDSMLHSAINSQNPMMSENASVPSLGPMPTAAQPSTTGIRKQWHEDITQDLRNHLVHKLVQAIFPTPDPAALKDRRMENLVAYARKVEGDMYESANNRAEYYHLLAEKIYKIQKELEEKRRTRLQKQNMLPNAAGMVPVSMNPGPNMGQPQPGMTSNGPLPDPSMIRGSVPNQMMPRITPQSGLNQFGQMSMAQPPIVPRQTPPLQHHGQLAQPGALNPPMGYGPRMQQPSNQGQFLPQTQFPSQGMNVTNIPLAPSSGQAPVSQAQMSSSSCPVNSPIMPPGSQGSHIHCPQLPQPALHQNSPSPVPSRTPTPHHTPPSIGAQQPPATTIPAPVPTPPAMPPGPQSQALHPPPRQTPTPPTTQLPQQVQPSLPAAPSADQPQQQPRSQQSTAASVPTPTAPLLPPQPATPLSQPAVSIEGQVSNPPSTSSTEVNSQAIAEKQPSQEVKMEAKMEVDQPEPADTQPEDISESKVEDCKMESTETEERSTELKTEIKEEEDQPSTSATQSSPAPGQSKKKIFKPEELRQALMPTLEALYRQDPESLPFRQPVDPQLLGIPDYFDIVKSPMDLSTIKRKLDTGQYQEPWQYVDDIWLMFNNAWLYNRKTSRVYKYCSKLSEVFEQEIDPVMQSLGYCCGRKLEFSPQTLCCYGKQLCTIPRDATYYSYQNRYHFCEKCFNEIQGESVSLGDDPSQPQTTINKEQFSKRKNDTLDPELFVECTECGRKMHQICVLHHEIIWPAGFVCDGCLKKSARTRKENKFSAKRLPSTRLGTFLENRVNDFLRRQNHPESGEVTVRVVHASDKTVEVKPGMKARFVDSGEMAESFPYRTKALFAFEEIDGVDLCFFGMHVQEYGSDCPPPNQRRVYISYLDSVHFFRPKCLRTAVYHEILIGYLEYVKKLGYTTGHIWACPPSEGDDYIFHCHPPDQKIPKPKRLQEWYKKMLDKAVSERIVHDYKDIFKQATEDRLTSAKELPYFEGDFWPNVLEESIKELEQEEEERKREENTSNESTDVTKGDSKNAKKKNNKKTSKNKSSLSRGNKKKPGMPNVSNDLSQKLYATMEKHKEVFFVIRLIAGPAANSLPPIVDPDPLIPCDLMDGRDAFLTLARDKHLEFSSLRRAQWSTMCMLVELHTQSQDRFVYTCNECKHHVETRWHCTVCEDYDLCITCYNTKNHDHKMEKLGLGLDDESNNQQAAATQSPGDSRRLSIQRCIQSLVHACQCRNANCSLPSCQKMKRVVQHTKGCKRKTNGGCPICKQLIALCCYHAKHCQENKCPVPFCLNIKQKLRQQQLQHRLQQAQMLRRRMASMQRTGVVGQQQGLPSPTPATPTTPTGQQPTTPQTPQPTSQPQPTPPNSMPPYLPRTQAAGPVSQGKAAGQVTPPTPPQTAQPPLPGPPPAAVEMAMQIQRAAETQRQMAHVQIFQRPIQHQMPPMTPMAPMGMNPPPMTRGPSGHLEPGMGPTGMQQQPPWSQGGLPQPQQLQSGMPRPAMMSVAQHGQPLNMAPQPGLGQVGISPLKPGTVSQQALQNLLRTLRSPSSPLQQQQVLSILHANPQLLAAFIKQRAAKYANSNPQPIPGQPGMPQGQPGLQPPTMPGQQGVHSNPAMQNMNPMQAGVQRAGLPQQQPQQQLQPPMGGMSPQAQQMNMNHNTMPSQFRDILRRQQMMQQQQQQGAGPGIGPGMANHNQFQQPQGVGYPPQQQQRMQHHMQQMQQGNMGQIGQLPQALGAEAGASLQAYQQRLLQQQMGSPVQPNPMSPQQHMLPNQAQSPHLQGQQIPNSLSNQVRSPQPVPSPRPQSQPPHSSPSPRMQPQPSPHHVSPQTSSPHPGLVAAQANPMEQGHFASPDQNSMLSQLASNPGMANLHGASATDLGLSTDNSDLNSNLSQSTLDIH

C-terminal end of the SMAD4 polyproline domain: peptide from the Smad-4 proline-rich region (aa 275-303), C-terminal end (PYTPNLPHHQNGHLQHHPPMPPHPGHYWP; UniProt Q13485 275-303, looked up, fragment)
binding of full-length p300 protein to the peptide (RLU) [1]: relatively high affinity

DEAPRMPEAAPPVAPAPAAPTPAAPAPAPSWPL [EGFP-PRO]
cell cycle effect (G2/M arrest) [2]: more striking arrest in G2/M phase | basal p53-dependent transactivation of the p21 promoter [3]: inhibit endogenous p53-dependent transcription compared to the EGFP-NS peptide and with the same potency as the EGFP-S20D peptide | cell cycle effect (G2/M arrest) [4]: similarly induced a G2/M arrest | p53-p300 co-stimulated transactivation, bax promoter [5]: striking inhibition of p53-p300 co-stimulation | p53-p300 co-stimulated transactivation, p21 promoter [6]: striking inhibition of p53-p300 co-stimulation

EPPLSQETFDDLWKL LPENN [EGFP-S20D]
cell cycle effect (G2/M arrest) [2]: induced a prominent G2/M arrest | basal p53-dependent transactivation of the p21 promoter [3]: inhibiting p53 activity to the highest degree | cell cycle effect (G2/M arrest) [4]: failed to elicit a defined G2/M arrest | p53-p300 co-stimulated transactivation, bax promoter [5]: inhibited synergism between p53 and p300; also recorded: inhibits transactivation | p53-p300 co-stimulated transactivation, p21 promoter [6]: inhibited synergism between p53 and p300; also recorded: inhibits transactivation | p53 protein levels (immunoblot) [6]: increased

EPPLSQETFSDLWKLLPENN [EGFP-BOX-I]
cell cycle effect (G2/M arrest) [2]: relatively insignificant role in altering cell-cycle parameters | p53-dependent gene expression in irradiated cells ([3]; A375 cells, ionizing radiation (5 Gy) or UV-C (20 J/m^2), p21-Luc): stimulated p53 activity in the irradiated cell | basal p53-dependent transactivation of the p21 promoter [3]: expected increase in p53-dependent transactivation | p53-p300 co-stimulated transactivation, bax promoter [5]: stimulated p53 activity | p53-p300 co-stimulated transactivation, p21 promoter [6]: stimulated p53 activity | p53 protein levels (immunoblot) [6]: increased

UBF1 (231-246): consensus peptide from UBF1, amino acids 231-246 (GKQWSQLSDKKRLKWI; UniProt P17480 231-246, looked up, fragment)
binding of full-length p300 protein to the peptide (RLU) [1]: did not bind p300

UBF1 (321-336): consensus peptide from UBF1, amino acids 321-336 (STERMVLCSQQWKLLS; UniProt P17480 321-336, looked up, fragment)
binding of full-length p300 protein to the peptide (RLU) [1]: affinity slightly less than the p53 BOX-I-Ser^20 phospho-peptide

p53 polyproline peptide (83-102): p53 polyproline peptide containing amino acids 83-102 (AAPAPAPSWPLSSSVPSQKT; UniProt P04637 83-102, looked up, fragment)
binding of full-length p300 protein to the peptide (RLU) [1]: high affinity

p53PRO (69-88): p53 polyproline peptide amino acids 69-88 (AAPPVAPAPAAPTPAAPAPA; UniProt P04637 69-88, looked up, fragment)
binding of full-length p300 protein to the peptide (RLU) [1]: did not restore binding activity
